Values quoted from earlier work as cited in US8110226B2, “Drug formulations having inert sealed cores” (Mylan Pharmaceuticals Inc., priority 2007, dated 2012).

Conditions: first pKa of non-polymeric pH modifying acid

CC(O)C(=O)O (stereo not shown) [Lactic Acid]
pKa: 4.14
